Read-outs that look alike come from different tables or passages of the source. Marks after values point to notes of the source that are not given here. Where only a bound is given, the exact number is not on record here.

The test system of series [1] is bloodstream form T. brucei (strain 221). Briefly: Trypanocidal activity against cultured bloodstream form T. brucei (resazurin). Particulars: for IC50: mean of triplicate ± SEM; for IC90: pH 7.4, read-out: T. brucei IC90. Background: The colour change of resazurin is a common sign of viable cells or microbes.
Method: T. brucei in the logarithmic phase of growth were diluted back to 2.5 × 10^4 mL^−1 and aliquoted into 96-well plates. The compounds were then added at a range of concentrations and the plates incubated at 37 °C. Each drug concentration was tested in triplicate. Resazurin was added after 48 h and the plates incubated for a further 16 h and the plates then read in a Spectramax plate reader. Results were analysed using GraphPad Prism.
Series [2] deals with rat skeletal myoblast L6 cells. Briefly: cells. As to conditions: L6, read-out: L6 cells IC50.
Method: (§1) Cytotoxicity against mammalian cells was assessed using microtitre plates following a described procedure [58]. Briefly, rat skeletal muscle L6 cells were seeded at 1 × 10^4 mL^−1 in 200 μL of growth medium containing different compound concentrations. The plates were incubated for 6 days at 37 °C and 20 μL resazurin was then added to each well. After a further 8 h incubation, the fluorescence was determined using a Spectramax plate reader.
Series [3] concerns the target T1, Electrophorus electricus AChE (EeAChE) (Electrophorus electricus, UniProt O42275). Further details: method as in PMID 24389509. Particulars: same experimental conditions; ref [40]; cited from earlier work.
Series [4] in a line: in vitro. As to conditions: rat.
Method: as §1
For series [5], the system named is human recombinant AChE (hAChE). Further details: method as in PMID 24389509. As to conditions: ref [40]; cited from earlier work.
In series [6] the target is T1, Electrophorus electricus AChE (EeAChE). Briefly: biochemical. The series is classed as biochemical. As to conditions: for IC50: mean ± SEM; for inhibition at 30 µM: the IC50 could not be determined.
Series [7] has as its system L. infantum strain MCAN/ES/92/BCN722 promastigote forms. Briefly: Activity against promastigotes of L. infantum (acid phosphatase). The class given is cell-based, Leishmania infantum. Particulars: promastigote form, mean ± SD of duplicate experiments performed at least twice.
The conditions of series [8]: for Pe: PAMPA-BBB, PBS:EtOH 70:30, mean ± SD of three independent experiments; for Pe (prediction) of BBB permeation: class from PAMPA-BBB Pe.
Method: (§2) Thus, the brain passive permeability of the novel compounds was evaluated in vitro through the widely used PAMPA-BBB method [[50]
Series [9] deals with T. cruzi strain MHOM/ES/2203/BCN590 (Tcl) epimastigote forms. As to the kind of experiment: Activity against epimastigotes of T. cruzi (cell counting). As to conditions: mean ± SD of duplicate experiments performed at least twice.
Series [10] can be described thus: in vitro. Particulars: pig, PAMPA.
Method: as §2
For series [11] the following is noted: commercial drugs for PAMPA-BBB validation; ref [2]; cited from earlier work. A general note: The PAMPA barrier holds no transporters, so it reflects passive diffusion.
In series [12] the test system is rat skeletal myoblast L6 cells.
Method: as §1
For series [13], the system named is bloodstream form T. brucei (strain 221). As to conditions: read-out: T. brucei IC50; nifurtimox reference value; ref [49]; cited from earlier work.
Where [14] appears, read: Trypanosoma brucei, pH 7.4, read-out: T. brucei IC50, bloodstream form, pH 7.4.
[15] abbreviates: rat skeletal muscle L6 cells, SITb: selectivity index as the ratio of cytotoxic to anti-T. brucei IC50 values, L6 IC50 / T. brucei IC50.
Where [16] appears, read: rat skeletal muscle L6 cells, SILi: selectivity index as the ratio of cytotoxic to anti-L. infantum IC50 values, L6 IC50 / L. infantum IC50.
The mark [17] stands for this setting: rat skeletal muscle L6 cells, SITc: selectivity index as the ratio of cytotoxic to anti-T. cruzi IC50 values, L6 IC50 / T. cruzi IC50.
[18] abbreviates: Trypanosoma cruzi, read-out: T. cruzi IC50, epimastigote form.
Where [19] appears, read: read-out: T. cruzi IC50, epimastigote form.
The mark [20] stands for this setting: read-out: T. brucei IC50, bloodstream form, pH 7.4.

T1 sequence (O42275 24-633): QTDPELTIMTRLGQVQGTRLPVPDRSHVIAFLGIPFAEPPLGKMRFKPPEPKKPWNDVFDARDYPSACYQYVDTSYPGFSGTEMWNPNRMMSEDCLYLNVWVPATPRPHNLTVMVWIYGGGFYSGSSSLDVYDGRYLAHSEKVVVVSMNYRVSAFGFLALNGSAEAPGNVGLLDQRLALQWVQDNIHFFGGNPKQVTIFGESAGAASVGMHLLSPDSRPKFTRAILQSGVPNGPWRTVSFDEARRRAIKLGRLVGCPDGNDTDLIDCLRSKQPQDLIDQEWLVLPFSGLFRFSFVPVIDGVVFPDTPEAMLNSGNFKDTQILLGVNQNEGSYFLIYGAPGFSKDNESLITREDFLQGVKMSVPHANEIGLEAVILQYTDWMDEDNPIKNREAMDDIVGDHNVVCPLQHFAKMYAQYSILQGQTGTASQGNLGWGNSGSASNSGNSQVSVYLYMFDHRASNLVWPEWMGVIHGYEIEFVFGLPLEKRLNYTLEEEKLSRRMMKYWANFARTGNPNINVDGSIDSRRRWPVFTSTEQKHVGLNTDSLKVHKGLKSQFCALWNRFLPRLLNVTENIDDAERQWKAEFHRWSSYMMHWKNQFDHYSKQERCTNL

As usually defined, the IC50 is the concentration at which inhibition is half-maximal. By IC90 is commonly meant the concentration needed for an effect of 90%. `CCNCc1ccc2nc(-c3ccc(Cl)cc3)c3c(c2c1)N(Cc1ccccc1)CCC3` [Compound 1]: the IC50 is 3330 ± 180 nM in [1] (setting [14]), 7.08 ± 0.11 µM in [2], 150 ± 10 nM in [3] and 940 nM in [5]. Besides, the IC90 in series [1] (Trypanosoma brucei) amounted to 4.39 ± 0.04 µM. The selectivity ratio at 6 days in the series “in vitro [4]” (setting [15]) was 2.1.
Regarding `NCc1ccc(-c2nc3ccc(Cl)cc3c3c2CCCCN3)cc1` [Compound 32, 4-{10-Chloro-2,3,4,5-tetrahydro-1H-azepino[3,2-c]quinolin-6-yl}benzylamine], the IC50 in series [1] (setting [14]) is 2330 ± 120 nM; in series [6] it was 1200 ± 130 nM; in series [2], 7.02 ± 0.27 µM; in series [7] (Leishmania infantum) it was 5 to 8 µM; in series [7], 4.8 ± 0.7 µM; in series [9] (setting [18]), roughly 30 µM. Further, the 50% inhibitory concentration (IC50) in series [9] (setting [19]) came to 32.4 ± 0.6 µM. Also, the IC90 in series [1] (Trypanosoma brucei) came to 3.35 ± 0.05 µM. Also, the Pe in [8] is reported as 11.6 ± 0.2 10^−6 cm s^−1. Also, the “Pe (prediction) of BBB permeation” value in [8] is “CNS+ (compounds of high BBB permeation (CNS+): Pe (10^−6 cm s^−1) > 5.25)”. Moreover, the selectivity ratio at 6 days in the series “in vitro [4]” (setting [16]) stood at 1.5; in “in vitro [4]” (setting [15]), 3; in “in vitro [4]” (setting [17]) it was 0.2.
For `NCc1ccc(-c2nc3cc(Cl)ccc3c3c2CCCN3)cc1` [Compound 33, 4-{8-Chloro-1,2,3,4-tetrahydrobenzo[h][1,6]naphthyridin-5-yl}benzylamine], the half-maximal inhibitory concentration (IC50) came to 1250 ± 50 nM in [1] (setting [14]); 440 ± 40 nM in series [6]; 3.07 ± 0.66 µM in [2]; 13 ± 0.6 µM in series [7] (Leishmania infantum); 76.1 ± 3.2 µM in series [9] (setting [18]). For the same compound, in series [1] (Trypanosoma brucei), the IC90 is 2.12 ± 0.02 µM. Further, the Pe in series [8] is recorded as 4.0 ± 1.0 10^−6 cm s^−1. The figures for the selectivity ratio at 6 days in “in vitro [4]” (setting [16]), in “in vitro [4]” (setting [15]) and in the series “in vitro [4]” (setting [17]) were 0.2, 2.5 and 0.04, respectively.
`N#Cc1ccc(-c2nc3ccc(Cl)cc3c3c2CCCO3)cc1` [Compound 38, 4-{9-Chloro-3,4-dihydro-2H-pyrano[3,2-c]quinolin-5-yl}benzonitrile]: the IC50 in [1] (setting [14]) was 9610 ± 270 nM; in [6], 2700 ± 450 nM; in series [2] it was 36.3 ± 8.1 µM; in series [7] (Leishmania infantum) it was 23.5 ± 2.4 µM; in series [9] (setting [18]), 178 ± 92 µM. For the same compound, the IC90 in series [1] (Trypanosoma brucei) was determined as 13.7 ± 1 µM. Further, in series [8], the Pe is listed as 29.7 ± 3.8 10^−6 cm s^−1. Besides, the “Pe (prediction) of BBB permeation” value in series [8] was “CNS+ (compounds of high BBB permeation (CNS+): Pe (10^−6 cm s^−1) > 5.25)”. In addition, the selectivity ratio at 6 days in “in vitro [4]” (setting [16]) worked out at 1.5; in “in vitro [4]” (setting [15]), 3.8; in “in vitro [4]” (setting [17]), 0.2.
A word on the inhibition: it is the drop in the measured response relative to a control, in per cent. For `NCc1ccc(-c2nc3ccc(Cl)cc3c3c2CCCO3)cc1` [Compound 39, 4-{9-Chloro-3,4-dihydro-2H-pyrano[3,2-c]quinolin-5-yl}benzylamine], the IC50 is 1500 nM in [1] (setting [14]); 1460 ± 20 nM in series [1] (setting [20]); greater than 30000 nM in series [6]; 7 ± 0.19 µM in [2]; 6.1 ± 0.2 µM in series [7] (Leishmania infantum); roughly 30 µM in series [9] (setting [18]). Besides, in [9] (setting [19]), the IC50 amounted to 29.2 ± 3.7 µM. In [1] (Trypanosoma brucei), the IC90 stood at 1.77 ± 0.02 µM. This compound showed an inhibition at 30 µM in [6] of 45%. Also, the Pe in series [8] is reported as 15.5 ± 1.8 10^−6 cm s^−1. Moreover, the “Pe (prediction) of BBB permeation” value in series [8] is on record as “CNS+ (compounds of high BBB permeation (CNS+): Pe (10^−6 cm s^−1) > 5.25)”. Moreover, the selectivity ratio at 6 days turned out to be 1.1 in the series “in vitro [4]” (setting [16]), 4.8 in the series “in vitro [4]” (setting [15]) and 0.2 in the series “in vitro [4]” (setting [17]).
On to `Clc1ccc2nc(-c3cccs3)c(CCCN3CCCC3)cc2c1` [Compound 49, N-{3-[6-Chloro-2-(2-thienyl)quinolin-3-yl]propyl}pyrrolidine], for which the half-maximal inhibitory concentration (IC50) was roughly 5000 nM in series [1] (setting [14]); 3560 ± 170 nM in series [1] (setting [20]); roughly 30000 nM in series [6]; 9.44 ± 0.14 µM in [2]; roughly 15 µM in series [7] (Leishmania infantum); 13.1 ± 5.8 µM in series [7]. The concentration for half-maximal inhibition (IC50) in [9] (setting [18]) stood at 35.2 ± 12.6 µM. In series [1] (Trypanosoma brucei), the IC90 is 4.93 ± 0.17 µM. This compound also gave an inhibition at 30 µM in series [6] of 54%. For the same compound, the Pe in [8] is on record as 12.9 ± 0.1 10^−6 cm s^−1. In [8], the “Pe (prediction) of BBB permeation” value is “CNS+ (compounds of high BBB permeation (CNS+): Pe (10^−6 cm s^−1) > 5.25)”. The results for the selectivity ratio at 6 days in “in vitro [4]” (setting [16]), in the series “in vitro [4]” (setting [15]) and in “in vitro [4]” (setting [17]) were 0.7, 2.7 and 0.3, respectively.
Broadly, the Papp is the rate of passage across a membrane or cell layer, normalised by area and donor concentration. In the series “in vitro [10]”, `CCn1cc(C(=O)O)c(=O)c2cc(F)c(N3CCNCC3)cc21` [Norfloxacin] displayed a Papp of 0.9 ± 0.02 ×10⁻⁶ cm/s.
Take `CN1C(C(=O)Nc2ccccn2)=C(O)c2ccccc2S1(=O)=O` [Piroxicam]: in [11], the “Pe, literature value” was 2.5 10–6 cm s–1.
For the compound `CN(C)CCCN1c2ccccc2Sc2ccccc21` [Promazine], the “Pe, literature value” in series [11] is recorded as 8.8 10–6 cm s–1.
`O.O.O.O=C([O-])C(O)C(O)C(=O)[O-].O=C([O-])C(O)C(O)C(=O)[O-].[K+].[K+].[Sb].[Sb]` (stereo not shown) [Sb (III), Potassium antimony (III) tartrate hydrate, reference compound]: the “SILi: selectivity index as the ratio of cytotoxic to anti-L. infantum IC50 values” in series [12] was 0.1 ^g. This compound also had an IC50 in [7] of 24.3 ± 1.7 µM.
With `CC1CS(=O)(=O)CCN1/N=C/c1ccc([N+](=O)[O-])o1` (stereo not shown) [nifurtimox, reference compound], the figures for the IC50 in series [2] and in [13] were 32 ± 1.1 µM and 4.4 ± 0.7 µM, respectively. In the series “in vitro [4]” (SITb: selectivity index as the ratio of cytotoxic to anti-T. brucei IC50 values), the selectivity ratio at 6 days is 7.3.

The values are drawn from paper PMC4638191, “Multicomponent reaction-based synthesis and biological evaluation of tricyclic heterofused quinolines with multi-trypanosomatid activity” (European Journal of Medicinal Chemistry, 2015).
